Measurements reported in patent publication US5389644A, “1,4-dihydropyridine compounds” (priority 1992, dated 1995).
pIC50: −log10 of the molar value.

Legend:
KB-A1 [1] = experiment: Cytotoxicity: reversal of resistance to adriamycin (reversion factor), line KB-A1; format: cell-based, Human
Experimental: (§1) The parameter measured is the cytotoxicity of the antitumour drug, quantified in the absence and in the presence of the reversing compound. […] The compounds tested for their capacity to reverse the resistance are added at the same time as the cytotoxic agent. The cells are then incubated for 4 days.

DC-3F/AD = experiment: Cytotoxicity: reversal of resistance to actinomycin D (reversion factor), line DC-3F/AD; format: cell-based, Chinese hamster
Experimental: as §1, with “compound. Two resistant cell lines were used: 1 Chinese hamster lung line, DC-3F/AD, the resistance of which was induced by actinomycin D.” for “compound.”

calcium channel = biological target: T1, calcium channel (Sus scrofa, UniProt A0A8W4FNC0); experiment: Affinity for the calcium channel labelled with [^3 ] PN 200110, aorta smooth muscle microsome preparations; format: binding; details: pig aorta smooth muscle microsomes; means of three independent experiments
T1 construct: pig aorta smooth muscle microsome preparations; from tissue; host or cells: pig aorta smooth muscle microsomes
T1 sequence (A0A8W4FNC0 1-2067): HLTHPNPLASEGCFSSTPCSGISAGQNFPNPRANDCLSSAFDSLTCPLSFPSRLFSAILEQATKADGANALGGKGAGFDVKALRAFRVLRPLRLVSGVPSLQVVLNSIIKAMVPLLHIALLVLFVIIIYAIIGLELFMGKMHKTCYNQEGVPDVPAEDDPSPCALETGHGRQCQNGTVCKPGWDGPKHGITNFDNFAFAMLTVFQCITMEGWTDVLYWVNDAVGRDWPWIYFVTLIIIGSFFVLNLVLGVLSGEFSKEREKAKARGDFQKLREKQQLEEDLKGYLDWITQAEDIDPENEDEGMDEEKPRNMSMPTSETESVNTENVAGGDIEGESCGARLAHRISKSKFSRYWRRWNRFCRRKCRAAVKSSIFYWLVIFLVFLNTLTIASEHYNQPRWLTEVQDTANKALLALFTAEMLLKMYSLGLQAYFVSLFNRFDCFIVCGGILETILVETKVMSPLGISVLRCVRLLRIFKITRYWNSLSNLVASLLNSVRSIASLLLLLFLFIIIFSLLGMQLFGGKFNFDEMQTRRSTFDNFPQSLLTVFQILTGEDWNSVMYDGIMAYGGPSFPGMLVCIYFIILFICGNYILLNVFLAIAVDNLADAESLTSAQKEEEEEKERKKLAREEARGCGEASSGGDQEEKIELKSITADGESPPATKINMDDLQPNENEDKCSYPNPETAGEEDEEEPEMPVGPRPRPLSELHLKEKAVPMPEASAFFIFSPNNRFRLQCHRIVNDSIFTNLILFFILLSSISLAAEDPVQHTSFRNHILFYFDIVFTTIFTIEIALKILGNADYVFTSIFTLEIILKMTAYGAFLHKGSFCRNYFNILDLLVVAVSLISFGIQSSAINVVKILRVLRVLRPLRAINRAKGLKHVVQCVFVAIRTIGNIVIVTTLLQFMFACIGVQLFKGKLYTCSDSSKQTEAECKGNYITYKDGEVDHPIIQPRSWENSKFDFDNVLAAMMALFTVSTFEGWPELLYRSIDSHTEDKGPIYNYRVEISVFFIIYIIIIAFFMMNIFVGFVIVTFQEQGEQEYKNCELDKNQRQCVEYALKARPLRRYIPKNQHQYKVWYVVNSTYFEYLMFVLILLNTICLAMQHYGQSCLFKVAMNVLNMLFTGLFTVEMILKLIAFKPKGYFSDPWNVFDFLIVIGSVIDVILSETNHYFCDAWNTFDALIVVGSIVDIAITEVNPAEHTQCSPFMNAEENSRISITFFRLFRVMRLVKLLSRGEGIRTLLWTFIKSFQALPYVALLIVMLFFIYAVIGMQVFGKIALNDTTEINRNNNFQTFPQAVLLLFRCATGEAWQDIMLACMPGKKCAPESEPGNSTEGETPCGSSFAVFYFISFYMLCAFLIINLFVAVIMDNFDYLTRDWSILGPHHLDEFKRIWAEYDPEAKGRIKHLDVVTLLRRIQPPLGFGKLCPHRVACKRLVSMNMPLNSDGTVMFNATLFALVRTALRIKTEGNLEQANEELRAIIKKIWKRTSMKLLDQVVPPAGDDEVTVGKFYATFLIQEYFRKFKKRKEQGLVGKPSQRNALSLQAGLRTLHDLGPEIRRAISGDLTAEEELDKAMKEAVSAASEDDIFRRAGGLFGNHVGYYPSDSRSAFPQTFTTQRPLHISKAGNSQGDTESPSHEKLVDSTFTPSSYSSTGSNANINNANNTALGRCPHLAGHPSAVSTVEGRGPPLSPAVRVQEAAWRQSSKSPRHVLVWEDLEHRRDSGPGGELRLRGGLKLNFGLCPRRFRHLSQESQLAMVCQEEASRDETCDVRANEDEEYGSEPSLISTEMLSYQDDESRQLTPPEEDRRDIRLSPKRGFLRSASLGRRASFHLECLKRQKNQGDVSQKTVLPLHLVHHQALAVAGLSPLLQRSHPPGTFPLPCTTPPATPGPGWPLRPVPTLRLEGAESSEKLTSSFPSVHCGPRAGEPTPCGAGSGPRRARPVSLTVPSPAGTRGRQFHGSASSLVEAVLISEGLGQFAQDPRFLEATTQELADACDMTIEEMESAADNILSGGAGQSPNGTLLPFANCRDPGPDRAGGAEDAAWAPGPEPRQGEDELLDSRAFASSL
From the text: The results are expressed as IC50 (M) and represent means of three independent experiments.

KB-A1 [2] = experiment: Flow cytometry: intracellular accumulation of ADR, line KB-A1; format: cell-based, Human; details: ADR 50 μM, 5 hours
Experimental: Also measured was the effect of the compounds on the intracellular concentration of adriamycin. […] By measuring that fluorescence, it is thus possible to obtain a relative measurement of the intracellular concentration of ADR. […] The cells (5×10^5 per ml) were exposed simultaneously to ADR at a fixed concentration (50 μM) and to the tested compounds at various concentrations. After 5 hours' incubation, the intracellular accumulation of ADR was evaluated by FCM. […] The results were presented in the form of linear histograms of the intracellular ADR fluorescence. Expression of the results: for each of the histograms the mean fluorescence per channel (MEAN) was determined by the computer of the apparatus. For all experiments: a negative control (cells without ADR) fixed the autofluorescence threshold. a positive control (cells with ADR) determined the MEAN value=MN1. the "test" tubes (cells with ADR and with compound) were used to determine, for each of the compounds and at each of the concentrations, the MEAN values=MN2. The results are expressed in the form of variations from the mean fluorescence obtained for each of the "test" tubes (MN2) in relation to the mean fluorescence obtained with the positive control (MN1): VAR-MEAN=MN2-MN1. The measured parameter is thus the increase in ADR fluorescence in the presence of the tested compounds.

P 388 = experiment: In vivo increase in antitumour activity of vincristine, sensitive line P388; parameters: species or system murine leukaemia in female B6D2F1 mice; details: compound 150 mg/kg p.o.
Experimental: (§2) The sensitive parent line P 388 (murine leukaemia) and the sub-line resistant to vincristine, P 388/VCR, were supplied by NCI (Frederick, USA). The tumour cells (10^6 cells) were inoculated on day 0 into the indraperitoneal cavity of female B6D2F1 mice (Iffa Credo, France) weighing from 18 to 20 g (groups of 8 to 10 animals).
Every day for 4 days, starting from day 1, the animals received: […]
(§3) 30 to 60 minutes later, an administration by the i.p. route of 0.25 mg/kg of vincristine (used as a reference antitumour agent).
(§4) The antitumour activity is expressed as follows: [formula]
(§5) The values are mean values obtained in independent experiments (# sem when n is greater than or equal to 3).
Using the sensitive line (P388) the tested compounds of the invention increase considerably the sensitivity of the cells to vincristine.

P 388/VCR = experiment: In vivo increase in antitumour activity of vincristine, resistant line P 388/VCR; parameters: species or system murine leukaemia in female B6D2F1 mice
From the text: This study was completed by an in vivo study, using a murine leukaemia resistant to vincristine (P 388/VCR) and using the compounds of the present invention in association with vincristine.
as §2
Every day for 4 days, starting from day 1, the animals received:
an administration of 25 to 150 mg/kg by i.p., p.o. or i.v. route of the compound of the present invention to be tested, as mentioned in the table 4a; then
as §3, §4, §5

Plasmodium falciparum = details: literature (Krogstad; Martin; Deloron); cited from earlier work
[3] = with VCR […] i.p., compound 50 mg/kg i.p.
[4] = with VCR […] i.p., compound 150 mg/kg p.o.

For `CCOC(=O)C1=C(COCCOCCNCc2cnc3ccccc3c2)NC(C)=C(C(=O)OC)C1c1cccc(Cl)c1Cl` (stereo not drawn) [Example 23, d-2-{[2-(2-[N-(quinol-3-yl)methylamino]ethoxy)ethoxy]methyl}-4-(2,3-dichlorophenyl)-3-ethoxycarbonyl-5-methoxycarbonyl-6-methyl-1,4-dihydropyridine], the “reversion factor (RF)” value (KB-A1 [1]; compound 1 μM) was 19.6, the “reversion factor (RF)” value (KB-A1 [1]; compound 5 μM) was 1,035.8 and the “reversion factor (RF)” value (DC-3F/AD; compound 1 μM) was 10.2. For the same compound, the “reversion factor (RF)” value (DC-3F/AD; compound 5 μM) was 2,304.0 and the pIC50 (calcium channel) was 5.70.
In the case of `CCOC(=O)C1=C(COCCOCCNCc2nccc3ccccc23)NC(C)=C(C(=O)OC)C1c1cccc(Cl)c1Cl` (stereo not drawn) [Example 19, d-2-{[2-(2-(N-isoquinol-1-ylmethylamino)ethoxy)ethoxy]methyl}-4-(2,3-dichlorophenyl)-3-ethoxycarbonyl-5-methoxycarbonyl-6-methyl-1,4-dihydropyridine], the “reversion factor (RF)” value (KB-A1 [1]; compound 1 μM) was 3.6, the “reversion factor (RF)” value (KB-A1 [1]; compound 5 μM) was 140.5 and the “reversion factor (RF)” value (DC-3F/AD; compound 1 μM) was 1.5. For the same compound, the “reversion factor (RF)” value (DC-3F/AD; compound 5 μM) was 1,701.7, the “increase in the ADR fluorescence (VAR-MEAN)” value (“increase” for short) (KB-A1 [2]; compound 1 μM) was 9.4 and the “increase” value (KB-A1 [2]; compound 5 μM) was 34.7. For the same compound, the “increase” value (KB-A1 [2]; compound […]) was 15.7 and the pIC50 (calcium channel) was 5.49.
For `CCOC(=O)C1=C(COCCOCCNCc2ccc3ccccc3c2)NC(C)=C(C(=O)OC)C1c1cccc(Cl)c1Cl` (stereo not drawn) [Example 12, d-2-{[2-(2-(N-naphth-2-ylmethylamino)ethoxy)ethoxy]methyl}-4-(2,3-dichlorophenyl)-3-ethoxycarbonyl-5-methoxycarbonyl-6-methyl-1,4-dihydropyridine], the “reversion factor (RF)” value (KB-A1 [1]; compound 1 μM) was 1.2, the “reversion factor (RF)” value (KB-A1 [1]; compound 5 μM) was 125.4 and the “reversion factor (RF)” value (DC-3F/AD; compound 1 μM) was 1.1. The “reversion factor (RF)” value (DC-3F/AD; compound 5 μM) was 1,320.1 and the pIC50 (calcium channel) was 5.89.
With `CCOC(=O)C1=C(COCCOCCNCc2cccnc2)NC(C)=C(C(=O)OC)C1c1cccc(Cl)c1Cl` (stereo not drawn) [Example 17, d-2-{[2-(2-(N-pyrid-3-ylmethylamino)ethoxy)ethoxy]methyl}-4-(2,3-dichlorophenyl)-3-ethoxycarbonyl-5-methoxycarbonyl-6-methyl-1,4-dihydropyridine] the “reversion factor (RF)” value (KB-A1 [1]; compound 1 μM) was 10.5, the “reversion factor (RF)” value (KB-A1 [1]; compound 5 μM) was 120.7 and the “reversion factor (RF)” value (DC-3F/AD; compound 1 μM) was 3.7. For the same compound, the “reversion factor (RF)” value (DC-3F/AD; compound 5 μM) was 8,600.0 and the pIC50 (calcium channel) was 5.85.
In the case of `CCOC(=O)C1=C(COCCOCCNCc2ccsc2)NC(C)=C(C(=O)OC)C1c1cccc(Cl)c1Cl` (stereo not drawn) [Example 14, d-2-{[2-(2-(N-thien-3-ylmethylamino)ethoxy)ethoxy]methyl}-4-(2,3-dichlorophenyl)-3-ethoxycarbonyl-5-methoxycarbonyl-6-methyl-1,4-dihydropyridine], the “reversion factor (RF)” value (KB-A1 [1]; compound 1 μM) was 22.7, the “reversion factor (RF)” value (KB-A1 [1]; compound 5 μM) was 169.4 and the “reversion factor (RF)” value (DC-3F/AD; compound 1 μM) was 8.2. The “reversion factor (RF)” value (DC-3F/AD; compound 5 μM) was 4,463.2, the T/C (P 388; VCR 0) was 95% and the “Survivors on day 60” value (P 388; with VCR […] i.p.) was 4/8. For the same compound, the T/C (P 388; with VCR […] i.p.) was over 587%, the “increase” value (KB-A1 [2]; compound 1 μM) was 2.4 and the “increase” value (KB-A1 [2]; compound 5 μM) was 20.5. The “increase” value (KB-A1 [2]; compound […]) was 8.2, the T/C (P 388/VCR; VCR 0, compound 50 mg/kg i.p.) was 99% and the T/C (P 388/VCR; VCR 0, compound 150 mg/kg p.o.) was 103%. It also gave a T/C (P 388/VCR; [3]) of 164%, a T/C (P 388/VCR; [4]) of 200% and a pIC50 (calcium channel) of 6.00.
With `COc1ccc(CCN(C)CCCC(C#N)(c2ccc(OC)c(OC)c2)C(C)C)cc1OC` (centres unmarked) [verapamil, reference compound] the “reversion factor (RF)” value (KB-A1 [1]; compound 1 μM) was 4.6, the “reversion factor (RF)” value (KB-A1 [1]; compound 5 μM) was 26.0 and the “reversion factor (RF)” value (DC-3F/AD; compound 1 μM) was 1.0. For the same compound, the “reversion factor (RF)” value (DC-3F/AD; compound 5 μM) was 3.1, the “increase” value (KB-A1 [2]; compound 1 μM) was 3.7 and the “increase” value (KB-A1 [2]; compound 5 μM) was 12.2. The “increase” value (KB-A1 [2]; compound […]) was 8.6 and the “sensitivity of a chloroquine-resistant line to chloroquine” value (Plasmodium falciparum) was “restores the sensitivity of a line resistant to chloroquine”.
With `CCOC(=O)C1=C(COCCN)NC(C)=C(C(=O)OC)C1c1ccccc1Cl` (centres unmarked) [AMLODIPINE, amlodipine, reference compound] the “reversion factor (RF)” value (KB-A1 [1]; compound 1 μM) was 1.5, the “reversion factor (RF)” value (KB-A1 [1]; compound 5 μM) was 5.9 and the “reversion factor (RF)” value (DC-3F/AD; compound 1 μM) was 1.0. For the same compound, the “reversion factor (RF)” value (DC-3F/AD; compound 5 μM) was 2.6, the “increase” value (KB-A1 [2]; compound 1 μM) was 0.0 and the “increase” value (KB-A1 [2]; compound 5 μM) was 4.7. The “increase” value (KB-A1 [2]; compound […]) was 2.1 and the “sensitivity of a chloroquine-resistant line to chloroquine” value (Plasmodium falciparum) was “restores the sensitivity of a line resistant to chloroquine”.
For `CCOC(=O)C1=C(COCCOCCNCc2ccnc3ccccc23)NC(C)=C(C(=O)OC)C1c1cccc(Cl)c1Cl` (stereo not drawn) [Example 18, d-2-{[2-(2-(N-quinol-4-ylmethylamino)ethoxy)ethoxy]methyl}-4-(2,3-dichlorophenyl)-3-ethoxycarbonyl-5-methoxycarbonyl-6-methyl-1,4-dihydropyridine], the “reversion factor (RF)” value (KB-A1 [1]; compound 1 μM) was 4.3, the “reversion factor (RF)” value (KB-A1 [1]; compound 5 μM) was 348.2 and the “reversion factor (RF)” value (DC-3F/AD; compound 1 μM) was 3.3. For the same compound, the “reversion factor (RF)” value (DC-3F/AD; compound 5 μM) was 5,018.4 and the pIC50 (calcium channel) was 5.96.
In the case of `CCOC(=O)C1=C(COCCOCCNCc2ccccn2)NC(C)=C(C(=O)OC)C1c1cccc(Cl)c1Cl` (stereo not drawn) [Example 16, d-2-{[2-(2-(N-pyrid-2-ylmethylamino)ethoxy)ethoxy]methyl}-4-(2,3-dichlorophenyl)-3-ethoxycarbonyl-5-methoxycarbonyl-6-methyl-1,4-dihydropyridine], the “reversion factor (RF)” value (KB-A1 [1]; compound 1 μM) was 13.9, the “reversion factor (RF)” value (KB-A1 [1]; compound 5 μM) was 122.4 and the “reversion factor (RF)” value (DC-3F/AD; compound 1 μM) was 3.4. The “reversion factor (RF)” value (DC-3F/AD; compound 5 μM) was 8,248.4 and the pIC50 (calcium channel) was 5.80.
For `CCOC(=O)C1=C(COCCOCCNCc2ccc([N+](=O)[O-])cc2)NC(C)=C(C(=O)OC)C1c1cccc(Cl)c1Cl` (stereo not drawn) [Example 1, d-2-{[2-(2-(N-p-nitrobenzylamino)ethoxy)ethoxy]methyl}-4-(2,3-dichlorophenyl)-3-ethoxycarbonyl-5-methoxycarbonyl-6-methyl-1,4-dihydropyridine], the “reversion factor (RF)” value (KB-A1 [1]; compound 1 μM) was 32.1, the “reversion factor (RF)” value (KB-A1 [1]; compound 5 μM) was 640.5 and the “reversion factor (RF)” value (DC-3F/AD; compound 1 μM) was 21.0. The “reversion factor (RF)” value (DC-3F/AD; compound 5 μM) was 2,613.2, the “Survivors on day 60” value (P 388; VCR 0) was 0/8 and the T/C (P 388; VCR 0) was 99%. For the same compound, the “Survivors on day 60” value (P 388; with VCR […] i.p.) was 4/8, the T/C (P 388; with VCR […] i.p.) was over 532% and the “increase” value (KB-A1 [2]; compound 1 μM) was 5.5. The “increase” value (KB-A1 [2]; compound 5 μM) was 45.7, the “increase” value (KB-A1 [2]; compound […]) was 26.1 and the T/C (P 388/VCR; VCR 0, compound 50 mg/kg i.p.) was 107%. For the same compound, the T/C (P 388/VCR; VCR 0, compound 150 mg/kg p.o.) was 99%, the T/C (P 388/VCR; [3]) was 171% and the T/C (P 388/VCR; [4]) was 185%. For the same compound, the pIC50 (calcium channel) was 5.80.
